Marks after values point to notes of the source that are not given here.
Tests used:
caspase-3 = assay: Example 1 immunohistochemistry: caspase-3-immunoreactive cells; assay type: in vivo, Sprague-Dawley (SD) rats; conditions: for Numbers of neurons: Caspase-3+: 29 days after neuron apoptosis
Experimental: (§1) The induction of neuron apoptosis was carried out by damaging the right hemisphere of the brain of animals. Specifically, animals were anesthetized with 2 or 3% isoflurane in the mixture of 70% N2O and 28.5% O2, and were maintained with 1 to 1.5% isoflurane in the mixture of 70% N2O and 28.5% O2. After that the temporalis muscle was bisected and reflected through an incision made midway between the eye and the eardrum canal. The proximal MCA was exposed through a subtemporal craniectomy by microdental drills without removing the zygomatic arch and without transecting the facial nerve. […] Mortality was less than 5%. For sham control, all procedures were performed in the same way, with the exception of the occlusion of the MCA.
After deparraffinized of cerebral histological paraffin sections, citrate buffer antigen (epitope) retrieval pretreatment were conducted as previously (Shi S R et al., J Histochem Cytochem. 41:1599-604(1993)). Briefly, pre-heat water bath with staining dish containing 10 mM citrate buffers (pH 6.0) until temperature reaches 95-100° C. Immerse slides in the staining dish and place the lid loosely on the staining dish. Incubate for 20 minutes and turn off the water bath. Place the staining dish at room temperature and allow the slides to cool for 20 minutes. After epitope retrivals, sections were immunostained as following steps:
Incubate sections with methanol and 0.3% H2O2 for 30 minutes for blocking endogenous peroxidase activity at room temperature and rinse in 0.01M phosphate buffered saline (PBS; pH 7.2) for 3 times;
Incubate sections with normal horse serum blocking solution (Vector Lab. Inc., Burlingame, USA. Dilution 1:100) for 1 hour to block non-specific binding of immunoglobulin at room temperature in humidity chamber, and rinse in 0.01M PBS for 3 times;
Incubate sections with primary antisera for overnight at 4° C. in humidity chamber and rinse in 0.01M PBS for 3 times;
Incubate sections with biotinylated universal secondary antibody (Vector Lab., Dilution 1:50) for 1 hour at room temperature in humidity chamber and rinse in 0.01M PBS for 3 times;
Incubate sections with ABC reagents (Vectastain Elite ABC Kit, Vector Lab., Dilution 1:50) for 1 hour at room temperature in humidity chamber and rinse in 0.01M PBS for 3 times;
Incubate sections in Peroxidae substrate kit (Vector Lab.) for 5 min at room temperature and rinse in 0.01M PBS for 3 times;
Counterstain with Mayer's hematoxylin solution and rinse in running tap water for 30 minutes;
Dehydrate through 95% ethanol for 2 minutes, 100% ethanol for 3 times and Clear in xylene for two times; and
Coverslip with permanent mounting medium and observed under light microscope (Nikkon, Japan).
Histomorphometry: The nerve cells occupied by over 10% of immunoreactivities, the density, of each antiserum, caspase-3 and PARP were regarded as immunoreactive. In the present study, the numbers of each caspase-3 and PARP-immunoreactive cells among mm^2 of ipsilateral peri-infarct/defect cerebral cortex were measured using a computer-assisted image analysis program, respectively.
(§2) All data were expressed as mean±standard deviation (S.D.) of ten rats. Multiple comparison tests for different dose groups were conducted. Variance homogeneity was examined using the Levene test (Levene A, Clin Otalary, 1981; 6:145-51). […] Statistical analyses were conducted using SPSS (Release 14K, SPSS Inc., USA; Ludbrook, Clin Exp Pharmacol Physiol, 1997; 24:294-6). In addition, the percent changes between neuron apoptosis control and mirodenafil treated rats were calculated to help the understanding of the efficacy of test material as follow equation 3. Percentage changes as compared with neuron apoptosis control (%)=[((Data of mirodenafil treated groups−Data of neuron apoptosis control)/Data of neuron apoptosis control)×100] [EQUATION 3]

[1] = system: neuron apoptosis-operated rats, ipsilateral cerebral cortex; assay: Example 1 histopathology (H&E): cerebral atrophy and degenerative neurons; assay type: in vivo, Sprague-Dawley (SD) rats; conditions: for Cerebral atrophic % / Numbers of neurons: Degenerative cells: 29 days after neuron apoptosis
Experimental: Total one hundred healthy male Sprague-Dawley (SD) rats (6-wk old upon receipt; Japan; Body weight ranged in 180-200 g upon receipt) were used after acclimatization for […]. Animals were allocated five per polycarbonate cage in a temperature (20-25° C.) and humidity (50-55%) controlled room. Light:dark cycle was 12 hr:12 hr, and standard rodent chow (Samyang, Korea) and water were supplied free to access. All animals were treated in accordance with the Guidelines for Care and Use of Laboratory Animals of Daegu Haany University based on the Guide for the Care and Use of Laboratory Animals by Institute of Laboratory Animal Resources, Commission on Life Science, National Research Council, USA on 1996, Washington D.C. Experimental groups were as follows:
The mirodenafil (mirodenafil 2HCl; SK Chemical Life Science Business, KR) was used in this experiment. […] Mirodenafil was stored at 4° C. in a refrigerator to protect from light and humidity until used. Three different dosages, 0.5, 1 and 2 mg/kg of mirodenafil were directly dissolved in saline and subcutaneously administered in a volume of 1 ml/kg on the dorsal back skins, once a day for 28 days from 24 hrs after stabilization periods from operation. In saline and neuron apoptosis control rats, equal volumes of saline as vehicle were administered, instead of mirodenafil, respectively.
as §1
At 29 days after neuron apoptosis rats were sacrificed. Brains were removed, washed in chilled phosphate buffered saline (PBS, pH7.4), and dissected into 6 coronal sections (2 mm thickness) ranging from 2 to 14 mm from the frontal brain pole on the rat brain stainless steel coronal matrix (Harvard, USA). Brain slices prepared by the stainless steel coronal matrix were directly fixed in 10% NBF, not stained with TTC. Then, embedded in paraffin, cross-sectioned, and stained with hematoxylin and eosin (H&E) for observing general histopathology of cerebral cortex. […] The histopathologist was blindes to group distribution when this analysis was made.
Histomorphometry: The atrophic % of ipsilateral cerebral cortex was calculated as following equation 1 as compared with intact contralateral hemisphere. In addition, the numbers of degenerative neurons were also measured in the restricted view fields of cerebral cortex, mm^2, respectively. Cerebral atrophy formation=(Contralateral cerebral cortex area−ipsilateral cerebral cortex area)/Contralateral cerebral cortex area×100(%) [EQUATION 1]
as §2

**Q.** For `CCCOc1ccc(S(=O)(=O)N2CCN(CCO)CC2)cc1-c1nc2c(CCC)cn(CC)c2c(=O)[nH]1` [Mirodenafil, mirodenafil], which “numbers of caspase-3-immunoreactive neurons, change as compared with neuron apoptosis control” value (caspase-3; 0.5 mg/kg) is on record?
**A.** Its value is −33.43%.

**Q.** What about the “Numbers of neurons: Caspase-3+” value (caspase-3; 0.5 mg/kg s.c. once a day) of the same molecule?
**A.** The value was 43.80 ± 10.37^ab cells/mm^2 of cerebral cortex.

**Q.** What about the “numbers of caspase-3-immunoreactive neurons, change as compared with neuron apoptosis control” value (caspase-3; 1 mg/kg) of the same molecule?
**A.** Its value is −76.44%.

**Q.** And the “Numbers of neurons: Caspase-3+” value (caspase-3; 1 mg/kg s.c. once a day)?
**A.** Its value is 15.50 ± 3.57^ab cells/mm^2 of cerebral cortex.

**Q.** What about the “numbers of caspase-3-immunoreactive neurons, change as compared with neuron apoptosis control” value (caspase-3; 2 mg/kg) of the same molecule?
**A.** Its value is −77.96%.

**Q.** And the “Numbers of neurons: Caspase-3+” value (caspase-3; 2 mg/kg s.c. once a day)?
**A.** The value was 14.50 ± 3.69^ab cells/mm^2 of cerebral cortex.

**Q.** And the “ipsilateral cerebral atrophic %, change as compared with neuron apoptosis control” value (“ipsilateral cerebral atrophic %, change” below) ([1]; 0.5 mg/kg)?
**A.** The value was −8.70%.

**Q.** And the “numbers of degenerative neurons, change as compared with neuron apoptosis control” value (shortened to “numbers of degenerative neurons, change”) ([1]; 0.5 mg/kg)?
**A.** The value was −44.47%.

**Q.** What about the Cerebral atrophic % ([1]; 0.5 mg/kg s.c. once a day) of the same molecule?
**A.** Its Cerebral atrophic % is 51.38 ± 10.74^a %.

**Q.** And the “Numbers of neurons: Degenerative cells” value ([1]; 0.5 mg/kg s.c. once a day)?
**A.** The value was 45.20 ± 8.97^ab cells/mm^2 of cerebral cortex.

**Q.** And the “ipsilateral cerebral atrophic %, change” value ([1]; 1 mg/kg)?
**A.** The value was −46.42%.

**Q.** What about the “numbers of degenerative neurons, change” value ([1]; 1 mg/kg) of the same molecule?
**A.** The value was −73.46%.

**Q.** And the Cerebral atrophic % ([1]; 1 mg/kg s.c. once a day)?
**A.** The Cerebral atrophic % was 30.15 ± 10.28^ab %.

**Q.** And the “Numbers of neurons: Degenerative cells” value ([1]; 1 mg/kg s.c. once a day)?
**A.** Its value is 21.60 ± 9.43^ab cells/mm^2 of cerebral cortex.

**Q.** And the “ipsilateral cerebral atrophic %, change” value ([1]; 2 mg/kg)?
**A.** The value was −53.31%.

**Q.** What about the “numbers of degenerative neurons, change” value ([1]; 2 mg/kg) of the same molecule?
**A.** The value was −76.54%.

**Q.** What about the Cerebral atrophic % ([1]; 2 mg/kg s.c. once a day) of the same molecule?
**A.** The Cerebral atrophic % was 26.28 ± 9.12^ab %.

**Q.** And the “Numbers of neurons: Degenerative cells” value ([1]; 2 mg/kg s.c. once a day)?
**A.** The value was 19.10 ± 2.08^ab cells/mm^2 of cerebral cortex.

Source: patent US10064865B2, “Composition comprising phosphodiesterase type 5 inhibitor for inhibiting apoptosis of nerve cells” (ARIBIO INC., priority 2012, dated 2018)
